This is an account of results in patent publication US10975087B2, “Solid forms of tetrahydropyranyl amino-pyrrolopyrimidinone compounds” (ArQule, Inc., priority 2018, dated 2021).

Common to all, as to format: physicochemical
One data set can be described thus: Competitive slurrying. The settings on record: ca. 48 hours; for Form (competitive slurrying result): XRPD; for form observed after competitive slurrying (XRPD): ambient and 50° C., acetone, ethanol, acetonitrile. As to the method: Approximately 5 mg of each form (Form 1 and Form 4, Form 1 and Form 8, and Form 4 and Form 8) was weighed and agitated at ambient and 50° C. in minimal acetone, ethanol, diisopropyl ether (DIPE) and acetonitrile. Approximately 8 drops of each solvent was added and the samples were then agitated for ca. 48 hours, before being analyzed by XRPD. Table 9 details the conditions.

Data set [1] can be described thus: Thermodynamic solubility pH measurements. The settings on record: for Solubility (mg/mL) / Solubility: 48 hours. The protocol:
After 2 hours at 25° C., the pH of each slurry was measured and the pH was adjusted, where required. After 24 hours at 25° C., the pH of each slurry was measured and the pH was adjusted, where required. After 48 hours at 25° C., the slurries were separated by centrifugation. The solids were analyzed by XRPD, while the pH of the separated liquors were also measured.

Data set [2] is described as follows: Gravimetric vapor sorption (GVS). The settings on record: for Post-GVS analysis (form): after exposure to elevated humidity; for XRPD post GVS: cell wraps: Remained | unchanged; for GVS (hygroscopicity): summary Table 11. As to the method: Approximately 10-20 mg of sample was placed into a mesh vapor sorption balance pan and loaded into an IGASorp Moisture Sorption Analyzer balance by Hiden Analytical. The sample was subjected to a ramping profile from 40-90% relative humidity (RH) at 10% increments, maintaining the sample at each step until a stable weight had been achieved (98% step completion). After completion of the sorption cycle, the sample was dried using the same procedure to 0% RH, and finally taken back to the starting point of 40% RH. Two cycles were performed. The weight change during the sorption/desorption cycles were plotted, allowing for the hygroscopic nature of the sample to be determined.

Data set [3] can be described thus: 7 day stability testing, open vials at 40° C./75% RH, ambient and 80° C. Conditions: for Purity after 1 week (%) / area % purity and form changes after 1 week: open vials; for T = 0 purity (%): T = 0, before storage; for area % purity and form changes after 1 week: ambient, 40° C./75% RH and 80° C.
A short description of another data set: Aqueous solubility. The settings on record: for Solubility (mg/mL): Water; for Form: XRPD of damp solid after slurrying in Water, AXRPD: Amorphous by XRPD, but limited material for analysis; for XRPD post aqueous solubility: amorphous: Form 1 from solubility screen, Form 8: Amorphous, limited material. As to the method: (§1) Aqueous and acetone solubility was carried out using 3-10 mg of material, depending on availability, and slurrying in 150-200 μL of acetone or 300 μL of deionized water. The samples were agitated at ambient temperature then filtered by centrifugation (0.22 μm nylon filter) after ca. 24 hours and the solids analyzed by XRPD as damp solids. The filtrates were analyzed by HPLC for concentration determination. The water solubility was too low for detection using the current analytical method.

Another data set is described as follows: Acetone solubility. Conditions: for Form: XRPD of damp solid after slurrying in Acetone, *Small amount of material analyzed; for Acetone solubility: residual solid: form of residual solid, amorphous input: Form 2 residual solid with additional peaks; for Acetone solubility: summary Table 11. The protocol: as §1
Setting [4] is: ambient temperature, ca. 24 hours.
[5] abbreviates: deionized water, ambient temperature, ca. 24 hours.
Setting [6] is: summary Table 11, HPLC of filtrate.
[7] abbreviates: acetone, ambient temperature, ca. 24 hours.

Converted amounts (≈) assume the structure as drawn. Bounds are passed on as bounds.

On to `O=C(c1ccc(Oc2ccccc2)cc1Cl)c1c[nH]c2ncnc(N[C@@H]3CC[C@@H](CO)OC3)c12` [1 and 4], for which the “Form (competitive slurrying result)” value in “Competitive slurrying” (DIPE, 50° C.) is “Form 1”; in “Competitive slurrying” (Ethanol, 50° C.), “Form 1”; in the data set “Competitive slurrying” (Ethanol, Ambient) it was “Form 1”.
With `O=C(c1ccc(Oc2ccccc2)cc1Cl)c1c[nH]c2ncnc(N[C@@H]3CC[C@@H](CO)OC3)c12` [1 and 8], the “Form (competitive slurrying result)” value in “Competitive slurrying” (DIPE, 50° C.) is given as “Form 1”; in the data set “Competitive slurrying” (Ethanol, 50° C.), “Form 1”; in the data set “Competitive slurrying” (Ethanol, Ambient), “Form 1”.
In the case of `O=C(c1ccc(Oc2ccccc2)cc1Cl)c1c[nH]c2ncnc(N[C@@H]3CC[C@@H](CO)OC3)c12` [4 and 8], the “Form (competitive slurrying result)” value in the data set “Competitive slurrying” (DIPE, 50° C.) was “Form 4”; in “Competitive slurrying” (Ethanol, 50° C.), “Form 1”; in the data set “Competitive slurrying” (Ethanol, Ambient), “Form 1”.
For the compound `O=C(c1ccc(Oc2ccccc2)cc1Cl)c1c[nH]c2ncnc(N[C@@H]3CC[C@@H](CO)OC3)c12.O=S(=O)(O)CCS(=O)(=O)O` [Edisylate Pattern 1], the “pH - 2 Hours at 25° C.” value in data set [1] (Input Solvent Water) is recorded as 2.32; in data set [1] (Input Solvent pH 1), 0.17; in data set [1] (Input Solvent pH 4.5) it was 4.40; in data set [1] (Input Solvent pH 6.5), 6.44. Besides, the “pH - 24 Hours at 25° C.” value in data set [1] (Input Solvent Water) stood at 2.18; in data set [1] (Input Solvent pH 1), 0.70; in data set [1] (Input Solvent pH 4.5) it was 4.29; in data set [1] (Input Solvent pH 6.5) it was 6.03. Moreover, the “pH - 48 Hours at 25° C.” value in data set [1] (Input Solvent Water) was 2.37; in data set [1] (Input Solvent pH 1), 1.11; in data set [1] (Input Solvent pH 4.5) it was 4.22; in data set [1] (Input Solvent pH 6.5), 5.68. In addition, the “Solubility (mg/mL)” value in data set [1] (Input Solvent Water, 25° C.) is reported as “<LOD”; in data set [1] (Input Solvent pH 4.5, 25° C.), “<LOD”. Moreover, the “Solubility” value was 0.7 mg/mL in data set [1] (Input Solvent pH 1, 25° C.) and under 0.1 mg/mL in data set [1] (Input Solvent pH 6.5, 25° C.).
As to `O=C(c1ccc(Oc2ccccc2)cc1Cl)c1c[nH]c2ncnc(N[C@@H]3CC[C@@H](CO)OC3)c12` [Form 1 and Form 4], the “form observed after competitive slurrying (XRPD)” value (from here on “form observed”) in the data set “Competitive slurrying” (DIPE) is on record as “Form 1 was the dominant form”.
Regarding `O=C(c1ccc(Oc2ccccc2)cc1Cl)c1c[nH]c2ncnc(N[C@@H]3CC[C@@H](CO)OC3)c12` [Form 1 and Form 8], the “form observed” value in “Competitive slurrying” (DIPE) is on record as “Form 1 was the dominant form”.
For `O=C(c1ccc(Oc2ccccc2)cc1Cl)c1c[nH]c2ncnc(N[C@@H]3CC[C@@H](CO)OC3)c12` [Form 4 and Form 8], in “Competitive slurrying” (DIPE), the “form observed” value is “Form 1 and Form 2 mixtures, pure Form 1, pure Form 4 and pure Form 2”.
With `O=C(c1ccc(Oc2ccccc2)cc1Cl)c1c[nH]c2ncnc(N[C@@H]3CC[C@@H](CO)OC3)c12` [Form 4, (2-chloro-4-phenoxyphenyl)(4-(((3R,6S)-6-(hydroxymethyl)tetrahydro-2H-pyran-3-yl)amino)-7H-pyrrolo[2,3-d]pyrimidin-5-yl)methanone], in data set [2], the “hygroscopic nature by GVS” value was “non-hygroscopic”, the “Post-GVS analysis (form)” value is “remain Form 4”, the “XRPD post GVS” value was “Remained” and the “GVS (hygroscopicity)” value was 0.4% uptake. Further, the “uptake by GVS” value in data set [2] (at 90% RH) is given as 0.4%. Besides, the “Purity after 1 week (%)” value in data set [3] (40° C./75% RH) stood at 98.9%. Besides, the “Purity after 1 week (%)” value in data set [3] (80° C.) amounted to 98.9%. Further, in data set [3] (Ambient), the “Purity after 1 week (%)” value is on record as 98.9%. Moreover, in data set [3], the “T = 0 purity (%)” value is on record as 98.8%; the “area % purity and form changes after 1 week” value was “no decrease in area % purity or form changes”. Also, in data set [3] (cell wraps: No drop in purity or change in form), the Stability testing entry was “No drop in purity”. Further, in “Aqueous solubility” (setting [4]), the “Solubility (mg/mL)” value is reported as “API not detected”. In “Aqueous solubility”, the Form result is recorded as “Form 4” and the “XRPD post aqueous solubility” value is “Form 4”. For the same compound, in “Aqueous solubility” (setting [5]), the aqueous solubility result is “not soluble”. The aqueous solubility result in the data set “Aqueous solubility” (setting [6]) was “API not detected”. For the same compound, in the data set “Acetone solubility”, the Form result is recorded as “Form 1”, the “Acetone solubility: residual solid” value is “(Form 1 residual” and the Acetone solubility is on record as 15.1 mg/mL. Further, in the data set “Acetone solubility” (setting [7]), the “Solubility” value is reported as 15.1 mg/mL (≈ 31.5 mM) and the “solid form after slurrying in acetone (XRPD)” value is given as “converted to the Form 1 polymorph”.
In the case of `O=C(c1ccc(Oc2ccccc2)cc1Cl)c1c[nH]c2ncnc(N[C@@H]3CC[C@@H](CO)OC3)c12` [Form 8, (2-chloro-4-phenoxyphenyl)(4-(((3R,6S)-6-(hydroxymethyl)tetrahydro-2H-pyran-3-yl)amino)-7H-pyrrolo[2,3-d]pyrimidin-5-yl)methanone], in data set [2], the “hygroscopic nature by GVS” value was “non-hygroscopic”, the “Post-GVS analysis (form)” value was “remain Form 8”, the “XRPD post GVS” value is reported as “Remained” and the “GVS (hygroscopicity)” value came out at 0.8% uptake. Moreover, in data set [2] (at 90% RH, first cycle), the “uptake by GVS, first cycle” value is listed as under 0.3%. Also, the “uptake by GVS, second cycle” value in data set [2] (at 90% RH, second cycle) is listed as 0.8%. Further, the “Purity after 1 week (%)” value in data set [3] (40° C./75% RH) is given as 99.0%. In addition, in data set [3] (80° C.), the “Purity after 1 week (%)” value stood at 99.0%. Further, the “Purity after 1 week (%)” value in data set [3] (Ambient) is on record as 99.0%. Besides, in data set [3], the “T = 0 purity (%)” value stood at 99.0%; the “area % purity and form changes after 1 week” value is “no decrease in area % purity or form changes”. In addition, the “Solubility (mg/mL)” value in “Aqueous solubility” (setting [4]) was “API not detected”. For the same compound, in the data set “Aqueous solubility”, the Form result was “AXRPD” and the “XRPD post aqueous solubility” value is listed as “Amorphous,”. Also, the aqueous solubility entry in “Aqueous solubility” (setting [5]) was “not soluble”. Also, the aqueous solubility entry in the data set “Aqueous solubility” (setting [6]) is “API not detected”. Moreover, in the data set “Acetone solubility”, the Form entry is “Form 2*”, the “Acetone solubility: residual solid” value is “(Form 2 residual” and the Acetone solubility is on record as 11.5 mg/mL. Moreover, the “solid form after slurrying in acetone (XRPD)” value in the data set “Acetone solubility” (setting [7]) was “conversion to Form 2”. Also, in “Acetone solubility” (acetone, organic solvent or mixture, thermodynamic from solid, Acetone, ambient temperature, ca. 24 hours, read-out: Solubility), the solubility at 24 h came to 11.5 mg/mL (≈ 24 mM).
For the compound `O=C(c1ccc(Oc2ccccc2)cc1Cl)c1c[nH]c2ncnc(N[C@@H]3CC[C@@H](CO)OC3)c12` [Form 11, (2-chloro-4-phenoxyphenyl)(4-(((3R,6S)-6-(hydroxymethyl)tetrahydro-2H-pyran-3-yl)amino)-7H-pyrrolo[2,3-d]pyrimidin-5-yl)methanone], in data set [2], the “hygroscopic nature by GVS” value is “non-hygroscopic”.

A word on the Solubility: it is the concentration that dissolves in the medium under given conditions. A low value points to little dissolved substance. By solubility is commonly meant how much of the substance goes into solution per volume.
